Assay results taken from US6613875B1, “Cyclic peptide tube” (The Scripps Research Institute, priority 1993, dated 2003).
Square brackets hold non-standard residues; d marks the D form.

Test: Channel-mediated glucose efflux from glucose entrapped unilamellar vesicles, enzyme coupled NADPH assay
Format: biochemical
Conditions: for apparent rate constant of glucose transport: 27° C.
Source text: FIG. 28 illustrates a schematic illustration of channel-mediated glucose transport and the enzyme coupled assay used to monitor the transport activity with respect to the channel structure indicated in FIGS. 27A-B. Formation of a transmembrane pore structure(s) initiates glucose efflux from the liposome which can be directly monitored by measuring the rate of NADPH production. The enzymes and cofactors employed are hydrophilic and thus can not pass through the lipid membrane and are too large to penetrate the channel structure. Therefore, only the released glucose can undergo the enzymatic reaction.
FIG. 29 illustrates the ensuing glucose efflux on the addition of various amounts of the channel forming peptide of FIGS. 27A-B, viz., open circles represent 15.0×10^−6 M; closed circles represent 11.0×10^−6 M; open triangles represent 7.5×10^−6 M; closed triangles represent 5.6×10^−6 M; and open diamonds represent 3.8×10^−6 M. Efflux is expressed in terms of the amount of glucose released as a function of time (sampled at 90 sec intervals). The large unilamellar vesicles used in this study contained 200 mM D-glucose. All curves are background corrected to remove any contribution from the nonspecific glucose leakage from the liposomes.
Glucose transport activity was studied in isotonic solutions using glucose entrapped unilamellar lipid vesicles. Unilamellar vesicles, ˜150 nm in diameter, were prepared by the reverse-phase evaporation method using 1,2-dipalmitoyl-Sn-glycero-3-phosphatidylcholine (DPPC) 1-palmitoyl-2-oleoyl-Sn-glycero-3-phosphatidylcholine (POPC) 1-palmitoyl-2-oleoyl-Sn-glycero-3-phosphatidylserine (POPS), and cholesterol in the ratio 1:1:0.1:1 in a solution containing 50, 100, 150, or 200 mM D-glucose, 100 mM NaCl, and 50 mM Tris buffer pH 7.5, according to the method of F. Szoka et al. in Proc. Natl. Acad. Sci. USA (1978), vol. 75, pages 4194-4198. Liposomes were gel-filtered using Sephadex G-25 in an isotonic buffer containing 50, 100, 150, or 200 mM sucrose, 100 mM NaCl, and 50 mM Tris buffer pH 7.5. The liposome preparation was stored at 4° C. and used within 24 hours of the synthesis. The transport phenomenon was monitored spectrophotometrically at 340 nm for the production of NADPH using an enzyme coupled assay (FIG. 28), according to the method of S. C. Kinsky in Methods in Enzymology; Fleischer, S., Packer, L., Eds; Academic Press: London, 1974; vol. 32, pp 501-513. All experiments were performed on a Spectronic-3000 photodiode-array spectrophotometer using 3 ml quartz cuvettes placed in the thermojacketed multiple cell holder and held at 27° C. In a typical experiment the following solutions were sequentially placed in the cuvettes: 750 ml of buffer (300 mM NaCl, 50 mM Tris pH 7.5, 3.5 mM MgCl2, and 0.15 mM CaCl2), 500 ml of the enzyme solution (8 units.ml^−1 of hexokinase, 16 units.ml^−1 of glucose-6-phosphate dehydrogenase, 2.5 mM ATP, 1.3 mM NADP all dissolved in 200 mM NaCl, 50 mM Tris pH 7.5, 3.5 mM MgCl2, and 0.15 mM CaCl2), and 75 ml of the stock liposome solution^8 (2.6×10^−3 M in phospholipids). Total glucose content in each cuvette was determined by Triton X-100 treatment. Transport was initiated by the addition of an appropriate amount (5, 7.5, 10, 15, or 20 ml) of the peptide solution (1 mM in DMF) to the reference and the sample cuvettes (hexokinase was omitted from the reference sample). […] The production of NADPH was monitored at 340 nm for 1.5 h at 90 second time intervals. […]

For “cyclo[-(Trp-D-Leu)3-Gln-D-Leu-] (cyclo(W[dL]W[dL]W[dL]Q[dL]); SMILES CC(C)C[C@H]1NC(=O)[C@H](CCC(N)=O)NC(=O)[C@@H](CC(C)C)NC(=O)[C@H](Cc2c[nH]c3ccccc23)NC(=O)[C@@H](CC(C)C)NC(=O)[C@H](Cc2c[nH]c3ccccc23)NC(=O)[C@@H](CC(C)C)NC(=O)[C@H](Cc2c[nH]c3ccccc23)NC1=O) [eight residue ion channel forming cyclic peptide, approximately 7.5 Å pore]”, which “display any glucose transport activity under similar assay conditions” value (sentence reads 'neither ... nor ... display any glucose transport activity' = none) is on record?
The value was “nor”.

Which “apparent rate constant of glucose transport” value (“apparent rate constant” for short) (liposomes with initial glucose concentration 50 mM) does the source give for “cyclo[-Gln-(D-Leu-Trp)4-D-Leu-] (cyclo(Q[dL]W[dL]W[dL]W[dL]W[dL]); SMILES CC(C)C[C@H]1NC(=O)[C@H](CCC(N)=O)NC(=O)[C@@H](CC(C)C)NC(=O)[C@H](Cc2c[nH]c3ccccc23)NC(=O)[C@@H](CC(C)C)NC(=O)[C@H](Cc2c[nH]c3ccccc23)NC(=O)[C@@H](CC(C)C)NC(=O)[C@H](Cc2c[nH]c3ccccc23)NC(=O)[C@@H](CC(C)C)NC(=O)[C@H](Cc2c[nH]c3ccccc23)NC1=O) [10-residue cyclic peptide forming 10 Å pores that transport glucose]” here?
The value was 0.18±0.02 mol(glucose)/mol(peptide)/min^−1.

And the “apparent rate constant” value (liposomes with initial glucose concentration 100 mM)?
The value was 0.48±0.05 mol(glucose)/mol(peptide)/min^−1.

And the “apparent rate constant” value (liposomes with initial glucose concentration 150 mM)?
The value was 0.74±0.1 mol(glucose)/mol(peptide)/min^−1.

And the “apparent rate constant” value (liposomes with initial glucose concentration 200 mM)?
The value was 1.2±0.09 mol(glucose)/mol(peptide)/min^−1.
